Reference: US12564583B2, “Small molecules against cereblon to enhance effector T cell function” (H. LEE MOFFITT CANCER CENTER AND RESEARCH INSTITUTE, INC., priority 2016, dated 2026)

Tests used:
IL-2 = IL-2 relative to DMSO; format: cell-based
[1] = Viability relative to DMSO; format: cell-based; design: concentration or dose not given beside the values
[2] = biological target: thalidomide binding domain (TBD) of cereblon (Homo sapiens, UniProt Q96SW2); assay: Cereblon binding (DSF, FP/FI); conditions: for inhibition at 200 µM: read-out: Cereblon Binding (≥50% inhibition at 200 μM)
Method: Several libraries are available for screening inhibitors. Virtual analysis was formulated and then theoretical design of chemical test kit and virtual screen of test kit were carried out. Physical binding studies were also completed for the initial compounds using DSF and FP assays after they are fully tested. TEST KITs that represent the compounds identified from each of the available chemical libraries based on virtual chemical structures were also made.

Chain of thalidomide binding domain (TBD) of cereblon (Q96SW2 318-426 limits assumed): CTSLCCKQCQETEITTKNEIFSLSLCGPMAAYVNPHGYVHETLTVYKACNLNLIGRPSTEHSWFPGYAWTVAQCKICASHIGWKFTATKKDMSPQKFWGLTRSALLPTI

O=C1CCN(CCNC(=O)c2ccccc2)C(=O)N1
IL-2 (%) (Relative to DMSO) (IL-2): 47.1%
viability [1]: 84.9%
inhibition at 200 µM [2]: > 50%

O=C1CCC(NCCNC(=O)c2ccccc2)C(=O)N1 (stereo not drawn)
IL-2 (%) (Relative to DMSO) (IL-2): 46.7%
viability [1]: 68.2%
Cereblon Binding (≥50% inhibition at 200 μM) [2]: Yes*

O=C1C[C@H](N2C(=O)c3ccccc3C2=O)C(=O)N1
IL-2 (%) (Relative to DMSO) (IL-2): 44.4%
viability [1]: 85.6%
Cereblon Binding (≥50% inhibition at 200 μM) [2]: No

Nc1cc(Cl)ccc1C(=O)NCCn1ccc(=O)[nH]c1=O
IL-2 (%) (Relative to DMSO) (IL-2): 67.3%
viability [1]: 70.4%
Cereblon Binding (≥50% inhibition at 200 μM) [2]: Yes*

O=C1CCC(NC(=O)CCNS(=O)(=O)c2c(F)cccc2F)C(=O)N1 (stereo not drawn)
IL-2 (%) (Relative to DMSO) (IL-2): 120.1%
viability [1]: 99.4%
inhibition at 200 µM [2]: > 50%

O=C1CC(N2C(=O)c3cccc([N+](=O)[O-])c3C2=O)C(=O)N1 (stereo not drawn)
IL-2 (%) (Relative to DMSO) (IL-2): 133.4%
viability [1]: 81.9%
Cereblon Binding (≥50% inhibition at 200 μM) [2]: No

CNc1ccccc1C(=O)NCCn1ccc(=O)[nH]c1=O
IL-2 (%) (Relative to DMSO) (IL-2): 158.7%
viability [1]: 97%
inhibition at 200 µM [2]: > 50%

Nc1ccc2c(c1)CCN(C1CCC(=O)NC1=O)C2 (stereo not drawn)
IL-2 (%) (Relative to DMSO) (IL-2): 54.6%
viability [1]: 95.8%
Cereblon Binding (≥50% inhibition at 200 μM) [2]: Yes*

Cc1ccc(C(=O)NC2CCC(=O)NC2=O)o1 (stereo not drawn)
IL-2 (%) (Relative to DMSO) (IL-2): 48.0%
viability [1]: 84.7%
inhibition at 200 µM [2]: > 50%

Nc1ccccc1S(=O)(=O)NCCn1ccc(=O)[nH]c1=O
IL-2 (%) (Relative to DMSO) (IL-2): 31.8%
viability [1]: 74.6%
Cereblon Binding (≥50% inhibition at 200 μM) [2]: No

O=C1CCC(N2CCc3ccccc3C2)C(=O)N1 (stereo not drawn)
IL-2 (%) (Relative to DMSO) (IL-2): 105.4%
viability [1]: 99.5%
Cereblon Binding (≥50% inhibition at 200 μM) [2]: Yes*

O=C1CCC(N2CCC(c3ccccc3)CC2)C(=O)N1 (stereo not drawn)
IL-2 (%) (Relative to DMSO) (IL-2): 41.5%
viability [1]: 100%
inhibition at 200 µM [2]: > 50%

CNc1ccccc1C(=O)NCCN1CCC(=O)NC1=O
IL-2 (%) (Relative to DMSO) (IL-2): 167.5%
viability [1]: 101%
Cereblon Binding (≥50% inhibition at 200 μM) [2]: Yes*

O=C1CN(N2C(=O)c3cccc([N+](=O)[O-])c3C2=O)C(=O)N1
IL-2 (%) (Relative to DMSO) (IL-2): 50.0%
viability [1]: 96.4%
Cereblon Binding (≥50% inhibition at 200 μM) [2]: No

O=c1ccn(CCNS(=O)(=O)c2ccccc2)c(=O)[nH]1
IL-2 (%) (Relative to DMSO) (IL-2): 90.8%
viability [1]: 77.8%
Cereblon Binding (≥50% inhibition at 200 μM) [2]: Yes*

O=c1ccn(Cc2ccccc2)c(=O)[nH]1
IL-2 (%) (Relative to DMSO) (IL-2): 88.2%
viability [1]: 79.5%
Cereblon Binding (≥50% inhibition at 200 μM) [2]: Yes*

O=C1CC(N2C(=O)c3ccccc3C2=O)C(=O)N1 (stereo not drawn)
IL-2 (%) (Relative to DMSO) (IL-2): 10.9%
viability [1]: 75.3%
Cereblon Binding (≥50% inhibition at 200 μM) [2]: No

O=C1CCC(N2CCc3ccccc32)C(=O)N1 (stereo not drawn)
viability [1]: 98.7%

Nc1ccc(Cl)cc1C(=O)NCCn1ccc(=O)[nH]c1=O
IL-2 (%) (Relative to DMSO) (IL-2): 51.2%
viability [1]: 74.8%
Cereblon Binding (≥50% inhibition at 200 μM) [2]: Yes*

CN1C(=O)CCC(N2Cc3c(N)cccc3C2=O)C1=O.Cl (stereo not drawn)
IL-2 (%) (Relative to DMSO) (IL-2): 199.2%
viability [1]: 106%
Cereblon Binding (≥50% inhibition at 200 μM) [2]: No

Nc1ccccc1C(=O)NCCn1cc(F)c(=O)[nH]c1=O
IL-2 (%) (Relative to DMSO) (IL-2): 109.0%
viability [1]: 89.7%
Cereblon Binding (≥50% inhibition at 200 μM) [2]: Yes*

Nc1cccc2c1C(=O)N(C1CC(=O)NC1=O)C2=O (stereo not drawn)
IL-2 (%) (Relative to DMSO) (IL-2): 193.8%
viability [1]: 97%
Cereblon Binding (≥50% inhibition at 200 μM) [2]: No

O=C1CCC(N2CCc3ccc(O)cc3C2)C(=O)N1 (stereo not drawn)
IL-2 (%) (Relative to DMSO) (IL-2): 32.2%
viability [1]: 102%
Cereblon Binding (≥50% inhibition at 200 μM) [2]: Yes*

Cc1ccc(N)c(C(=O)NCCn2ccc(=O)[nH]c2=O)c1
IL-2 (%) (Relative to DMSO) (IL-2): 83.7%
viability [1]: 75.2%
Cereblon Binding (≥50% inhibition at 200 μM) [2]: Yes*

Nc1cccc(F)c1C(=O)NCCn1ccc(=O)[nH]c1=O
IL-2 (%) (Relative to DMSO) (IL-2): 107.0%
viability [1]: 95%
Cereblon Binding (≥50% inhibition at 200 μM) [2]: Yes*

O=c1ccn(CCNS(=O)(=O)Cc2ccccc2)c(=O)[nH]1
IL-2 (%) (Relative to DMSO) (IL-2): 138.2%
viability [1]: 76.7%
inhibition at 200 µM [2]: > 50%

Nc1cccc2c1CN([C@H]1CC(=O)NC1=O)C2=O
IL-2 (%) (Relative to DMSO) (IL-2): 124.9%
Cereblon Binding (≥50% inhibition at 200 μM) [2]: No

O=c1ccn(CCCCc2ccccc2)c(=O)[nH]1
IL-2 (%) (Relative to DMSO) (IL-2): 101.8%
viability [1]: 86.4%
Cereblon Binding (≥50% inhibition at 200 μM) [2]: Yes*

O=C1CCC(N2Cc3ccccc3C2)C(=O)N1 (stereo not drawn)
IL-2 (%) (Relative to DMSO) (IL-2): 69.0%
viability [1]: 84.8%
Cereblon Binding (≥50% inhibition at 200 μM) [2]: Yes*

CC(C)[C@H](NC(=O)c1ccccc1)C(=O)NC1CCC(=O)NC1=O (stereo partly drawn)
IL-2 (%) (Relative to DMSO) (IL-2): 84.5%
viability [1]: 99.1%
Cereblon Binding (≥50% inhibition at 200 μM) [2]: Yes*

Nc1cccc(S(=O)(=O)NC2CCC(=O)NC2=O)c1 (stereo not drawn)
IL-2 (%) (Relative to DMSO) (IL-2): 127.0%
viability [1]: 99.7%
inhibition at 200 µM [2]: > 50%
